The record followed here is patent publication US7064120B2, “Tricyclic pyridyl carboxamides and derivatives thereof tocolytic oxytocin receptor antagonists” (Wyeth, priority 2001, dated 2006).

The target in one assay is T1, human vasopressin V2 receptor subtype (Homo sapiens, UniProt P30518).
T1 construct: host or cells: CHO cells, stably transfected (pZeoSV vector)
T1 sequence (P30518 whole entry): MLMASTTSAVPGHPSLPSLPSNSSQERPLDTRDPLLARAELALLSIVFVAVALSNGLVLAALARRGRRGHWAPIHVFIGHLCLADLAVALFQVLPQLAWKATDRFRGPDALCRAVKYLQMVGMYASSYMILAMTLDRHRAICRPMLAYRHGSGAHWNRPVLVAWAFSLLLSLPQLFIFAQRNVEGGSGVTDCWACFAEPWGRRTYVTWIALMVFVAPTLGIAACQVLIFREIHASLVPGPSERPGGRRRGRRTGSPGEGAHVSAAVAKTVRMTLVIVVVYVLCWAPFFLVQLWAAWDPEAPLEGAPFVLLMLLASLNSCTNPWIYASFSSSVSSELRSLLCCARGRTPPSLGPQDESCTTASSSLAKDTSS
In words: Vasopressin binding in CHO cell membranes expressing human vasopressin V2 subtype receptors ([3H]arginine vasopressin radioligand binding). The settings on record: 100 nM. The procedure, abridged:
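Values are IC50 in nM or percent inhibition at a stated concentration, from scintillation counts after filtration. Binding ran 60 min at room temperature: [3H]arginine vasopressin, human V2-transfected CHO membranes (25 to 50 μg protein/well), pH 7.4 Tris-HCl buffer containing MgCl2, BSA, protease inhibitors.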
With `Cc1cc(C(=O)N2Cc3ccc(C(=O)N4CCN(c5ccncc5)CC4)n3Cc3ccccc32)ccc1-c1ccccc1C(F)(F)F` [Example 1], the “V2 % inhibition @ 100 nM” value worked out at 18%.

A word on the inhibition: it is the percentage by which the read-out fell short of the control. Read a high inhibition as a response far below the control. `COc1ccccc1-c1ccc(C(=O)N2Cc3ccc(C(=O)N(C)CCc4ccccn4)n3Cc3ccccc32)cc1C` [Example 65, 10-[(2′-Methoxy-2-methyl-[1,1′-biphenyl]-4-yl)carbonyl]-N-methyl-N-[2-(2-pyridinyl)ethyl]-10,11-dihydro-5H-pyrrolo[2,1-c][1,4]benzodiazepine-3-carboxamide] registered an inhibition at 0.1 µM of 16%.

Take `Cc1ccccc1-c1ccc(C(=O)N2Cc3ccc(C(=O)N(C)CCc4ccccn4)n3Cc3ccccc32)cc1C` [Example 66, 10-[(2,2′-Dimethyl-[1,1′-biphenyl]-4-yl)carbonyl]-N-methyl-N-[2-(2-pyridinyl)ethyl]-10,11-dihydro-5H-pyrrolo[2,1-c][1,4]benzodiazepine-3-carboxamide]: 0.1 µM produced 24% inhibition.

In turn, `COc1ccccc1-c1ccc(C(=O)N2Cc3ccc(C(=O)N(C)CCc4ccccn4)n3Cc3ccccc32)cc1` [Example 67, 10-[(2′-Methoxy-[1,1′-biphenyl]-4-yl)carbonyl]-N-methyl-N-[2-(2-pyridinyl)ethyl]-10,11-dihydro-5H-pyrrolo[2,1-c][1,4]benzodiazepine-3-carboxamide] showed an inhibition at 0.1 µM of 24%.

`Cc1ccccc1-c1ccc(C(=O)N2Cc3ccc(C(=O)N(C)CCc4ccccn4)n3Cc3ccccc32)cc1` [Example 68, N-Methyl-10-[(2′-methyl-[1,1′-biphenyl]-4-yl)carbonyl]-N-[2-(2-pyridinyl)ethyl]-10,11-dihydro-5H-pyrrolo[2,1-c][1,4]benzodiazepine-3-carboxamide] returned an inhibition at 0.1 µM of 13%.

With `COc1cc(C(=O)N2Cc3ccc(C(=O)N(C)CCc4ccccn4)n3Cc3ccccc32)ccc1-c1ccccc1C` [Example 69, 10-[(2-Methoxy-2′-methyl-[1,1′-biphenyl]-4-yl)carbonyl]-N-methyl-N-[2-(2-pyridinyl)ethyl]-10,11-dihydro-5H-pyrrolo[2,1-c][1,4]benzodiazepine-3-carboxamide], the inhibition at 0.1 µM was determined as 15%.

Molecule `COc1cccc(-c2cc(OC)c(C(=O)N3Cc4ccc(C(=O)N(C)CCc5ccccn5)n4Cc4ccccc43)cc2Cl)c1` [Example 70, 10-[(6-Chloro-3,3′-dimethoxy-[1,1′-biphenyl]-4-yl)carbonyl]-N-methyl-N-[2-(2-pyridinyl)ethyl]-10,11-dihydro-5H-pyrrolo[2,1-c][1,4]benzodiazepine-3-carboxamide] came in with an inhibition at 0.1 µM of 10%.

Regarding `COc1cc(C(=O)N2Cc3ccc(C(=O)N(C)CCc4ccccn4)n3Cc3ccccc32)ccc1-c1cccc2ccccc12` [Example 71, 10-[3-Methoxy-4-(naphthalen-1-yl)benzoyl]-N-methyl-N-[2-(2-pyridinyl)ethyl]-10,11-dihydro-5H-pyrrolo[2,1-c][1,4]benzodiazepine-3-carboxamide], testing at 0.1 µM gave an inhibition of 24%.

Molecule `COc1cccc(-c2ccc(C(=O)N3Cc4ccc(C(=O)N(C)CCc5ccccn5)n4Cc4ccccc43)cc2OC)c1` [Example 72, 10-[(2,3′-Dimethoxy-[1,1′-biphenyl]-4-yl)carbonyl]-N-methyl-N-[2-(2-pyridinyl)ethyl]-10,11-dihydro-5H-pyrrolo[2,1-c][1,4]benzodiazepine-3-carboxamide] displayed an inhibition at 0.1 µM of 11%.

The assay is the same for the next values; noted with them: value in parentheses.
One may read the IC50 as the point on the concentration scale where inhibition reaches its midpoint. As for `Cc1cc(C(=O)N2Cc3ccc(C(=O)N4CCN(Cc5ccc[n+]([O-])c5)CC4)n3Cc3ccccc32)ccc1-c1ccccc1C(F)(F)F` [Example 2, 10-{[2-Methyl-2′-trifluoromethyl-[1,1′-biphenyl]-4-yl]carbonyl}-3-({4-[(1-oxidopyridin-3-yl)methyl]piperazin-1-yl}carbonyl)-10,11-dihydro-5H-pyrrolo[2,1-c][1,4]benzodiazepine], the IC50 stood at 1420 nM.

In the case of `Cc1cc(C(=O)N2Cc3ccc(C(=O)N4CCN(Cc5ccc[n+]([O-])c5C)CC4)n3Cc3ccccc32)ccc1-c1ccccc1C(F)(F)F` [Example 3, 3-({4-[(2-Methyl-1-oxidopyridin-3-yl)methyl]piperazin-1-yl}carbonyl)-10-{[2-methyl-2′-trifluoromethyl-[1,1′-biphenyl]-4-yl]carbonyl}-10,11-dihydro-5H-pyrrolo[2,1-c][1,4]benzodiazepine], the half-maximal inhibitory concentration (IC50) is greater than 3000 nM.

`Cc1cc(C(=O)N2Cc3ccc(C(=O)N(C)Cc4ccc[n+]([O-])c4)n3Cc3ccccc32)ccc1-c1ccccc1C(F)(F)F` [Example 4, N-Methyl-10-{[2-methyl-2′-trifluoromethyl-[1,1′-biphenyl]-4-yl]carbonyl}-N-[(1-oxidopyridin-3-yl)methyl]-10,11-dihydro-5H-pyrrolo[2,1-c][1,4]benzodiazepine-3-carboxamide]: the IC50 was 464 nM.

For `COc1cc(-c2ccccc2C(F)(F)F)c(Cl)cc1C(=O)N1Cc2ccc(C(=O)N(C)Cc3cccnc3)n2Cc2ccccc21` [Example 5, 10-{[6-Chloro-3-methoxy-2′-trifluoromethyl-[1,1′-biphenyl]-4-yl]carbonyl}-N-methyl-N-(pyridin-3-ylmethyl)-10,11-dihydro-5H-pyrrolo[2,1-c][1,4]benzodiazepine-3-carboxamide], the IC50 is 433 nM.

As to `COc1cc(-c2ccccc2Cl)c(Cl)cc1C(=O)N1Cc2ccc(C(=O)N(C)Cc3cccnc3)n2Cc2ccccc21` [Example 6, 10-[(2′,6-Dichloro-3-methoxy-[1,1′-biphenyl]-4-yl)carbonyl]-N-methyl-N-(pyridin-3-ylmethyl)-10,11-dihydro-5H-pyrrolo[2,1-c][1,4]benzodiazepine-3-carboxamide], the concentration for half-maximal inhibition (IC50) was 309 nM.

Take `COc1cc(C(=O)N2Cc3ccc(C(=O)N(C)Cc4cccnc4)n3Cc3ccccc32)ccc1-c1ccccc1C(F)(F)F` [Example 7, 10-{[2-Methoxy-2′-trifluoromethyl-[1,1′-biphenyl]-4-yl]carbonyl}-N-methyl-N-(pyridin-3-ylmethyl)-10,11-dihydro-5H-pyrrolo[2,1-c][1,4]benzodiazepine-3-carboxamide]: the half-inhibitory concentration (IC50) was determined as 407 nM.

Turning to `COc1cc(C(=O)N2Cc3ccc(C(=O)N(C)Cc4ccc[n+]([O-])c4)n3Cc3ccccc32)ccc1-c1ccccc1C(F)(F)F` [Example 8, 10-{[2-Methoxy-2′-trifluoromethyl-[1,1′-biphenyl]-4-yl]carbonyl}-N-methyl-N-(1-oxo-pyridin-3-ylmethyl)-10,11-dihydro-5H-pyrrolo[2,1-c][1,4]benzodiazepine-3-carboxamide], the IC50 was determined as 237 nM.

Take `COc1cccc(-c2ccc(C(=O)N3Cc4ccc(C(=O)N(C)CCc5ccccn5)n4Cc4ccccc43)cc2C)c1` [Example 62, 10-[(3′-Methoxy-2-methyl-[1,1′-biphenyl]-4-yl)carbonyl]-N-methyl-N-[2-(2-pyridinyl)ethyl]-10,11-dihydro-5H-pyrrolo[2,1-c][1,4]benzodiazepine-3-carboxamide]: the IC50 was 1490 nM.

Take `COc1cc(-c2ccccc2C)c(Cl)cc1C(=O)N1Cc2ccc(C(=O)N(C)CCc3ccccn3)n2Cc2ccccc21` [Example 63, 10-[(6-Chloro-3-methoxy-2′-methyl-[1,1′-biphenyl]-4-yl)carbonyl]-N-methyl-N-[2-(2-pyridinyl)ethyl]-10,11-dihydro-5H-pyrrolo[2,1-c][1,4]benzodiazepine-3-carboxamide]: the concentration for half-maximal inhibition (IC50) turned out to be 714 nM.
